Test results as given in patent US9828379B2 (priority 2013, dated 2017).

Assays:
ABHD6 [1] = target: T1, ABHD6 (Mus musculus, UniProt Q8R2Y0); assay: biochemical; conditions: in vitro competitive ABPP
T1 sequence (Q8R2Y0 1-336): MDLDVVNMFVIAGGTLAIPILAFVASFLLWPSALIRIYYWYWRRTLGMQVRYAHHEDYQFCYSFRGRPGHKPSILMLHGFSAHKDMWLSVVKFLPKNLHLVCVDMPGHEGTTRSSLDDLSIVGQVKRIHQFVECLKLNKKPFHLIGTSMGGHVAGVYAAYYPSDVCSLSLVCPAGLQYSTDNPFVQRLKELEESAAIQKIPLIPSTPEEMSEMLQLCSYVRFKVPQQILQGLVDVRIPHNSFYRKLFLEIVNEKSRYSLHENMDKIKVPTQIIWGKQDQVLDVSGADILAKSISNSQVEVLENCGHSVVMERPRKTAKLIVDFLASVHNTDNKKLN

MAGL [2] = target: T2, MAGL (Mus musculus, UniProt O35678); assay: biochemical; conditions: mouse; in vitro competitive ABPP; read-out: Mouse (IC50 value, nM) MAGL
T2 sequence (O35678 1-303): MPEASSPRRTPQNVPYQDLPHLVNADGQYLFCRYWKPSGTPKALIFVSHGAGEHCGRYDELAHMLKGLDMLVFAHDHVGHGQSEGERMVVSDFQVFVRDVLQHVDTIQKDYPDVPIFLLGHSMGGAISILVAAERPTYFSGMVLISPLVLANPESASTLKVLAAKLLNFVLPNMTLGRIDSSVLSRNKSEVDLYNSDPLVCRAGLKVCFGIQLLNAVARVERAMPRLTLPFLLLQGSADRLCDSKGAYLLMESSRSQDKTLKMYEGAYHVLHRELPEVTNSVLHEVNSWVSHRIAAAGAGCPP

MAGL [3] = target: T2, MAGL; assay: In vitro competitive activity-based protein profiling (Table 2, % inhibition at 1 μM); type: biochemical; conditions: read-out: % Inhibition at 1 μM MAGL
Method: After 30 min, FP—Rh (1.0 μL, 50 μM in DMSO) was added and the mixture was incubated for another 30 min at 37° C. Reactions were quenched with SDS loading buffer (50 μL-4×) and run on SDS-PAGE.
Cell lysates were diluted with mock proteomes for use in competitive ABPP experiments.

FAAH [4] = target: T3, FAAH (Mus musculus, UniProt O08914); assay: biochemical; conditions: in vitro competitive ABPP
T3 sequence (O08914 1-579): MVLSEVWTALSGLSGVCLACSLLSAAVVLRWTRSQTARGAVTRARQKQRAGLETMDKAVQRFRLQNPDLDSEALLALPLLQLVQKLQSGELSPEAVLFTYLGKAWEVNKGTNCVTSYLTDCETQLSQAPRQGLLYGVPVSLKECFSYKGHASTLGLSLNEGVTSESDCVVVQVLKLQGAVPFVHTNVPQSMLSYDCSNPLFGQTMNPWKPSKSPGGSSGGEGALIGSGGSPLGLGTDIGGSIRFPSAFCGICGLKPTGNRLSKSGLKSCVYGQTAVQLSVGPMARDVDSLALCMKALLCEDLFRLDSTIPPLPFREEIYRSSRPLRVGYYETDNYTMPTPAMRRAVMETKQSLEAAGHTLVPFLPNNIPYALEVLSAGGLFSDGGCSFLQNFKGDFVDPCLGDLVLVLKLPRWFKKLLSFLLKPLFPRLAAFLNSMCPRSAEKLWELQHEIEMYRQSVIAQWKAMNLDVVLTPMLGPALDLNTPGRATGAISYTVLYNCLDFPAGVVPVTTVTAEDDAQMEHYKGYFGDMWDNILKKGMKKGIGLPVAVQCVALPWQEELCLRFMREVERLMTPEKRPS

ABHD6 [5] = target: T1, ABHD6; assay: In vitro competitive activity-based protein profiling (Table 2, % inhibition at 1 μM); type: biochemical; conditions: read-out: % Inhibition at 1 μM ABHD6
FAAH [6] = target: T3, FAAH; assay: as above; type: biochemical; conditions: read-out: % Inhibition at 1 μM FAAH

Compound | IC50 (ABHD6 [1]) | IC50 (MAGL [2]) | inhibition at 1 µM (MAGL [3]) | IC50 (FAAH [4]) | inhibition at 1 µM (ABHD6 [5]) | inhibition at 1 µM (FAAH [6])
O=C(OC(C(F)(F)F)C(F)(F)F)N1CC2CN(Cc3ccc(C(=O)N4CCCC4)c(OC(F)(F)F)c3)CC2C1 (stereo not drawn) [Example 193, 1,1,1,3,3,3-hexafluoropropan-2-yl 5-(4-(pyrrolidine-1-carbonyl)-3-(trifluoromethoxy)benzyl)hexahydropyrrolo[3,4-c]pyrrole-2(1H)-carboxylate] | 1000 to 10000 nM | 100 to 1000 nM | > 75% | > 10000 nM | 25 to 75% | < 25%
O=C(OC(C(F)(F)F)C(F)(F)F)N1CC2CN(Cc3cc(CN4CCCCC4)ccc3OC(F)(F)F)CC2C1 (stereo not drawn) [Example 189, 1,1,1,3,3,3-hexafluoropropan-2-yl 5-(5-(piperidin-1-ylmethyl)-2-(trifluoromethoxy)benzyl)hexahydropyrrolo[3,4-c]pyrrole-2(1H)-carboxylate] | 1000 to 10000 nM | 100 to 1000 nM | > 75% | 1000 to 10000 nM | < 25% | < 25%
O=C(OC(C(F)(F)F)C(F)(F)F)N1CC2CN(Cc3ccc(C(F)(F)F)cc3N3CC4COCC4C3)CC2C1 (stereo not drawn) [Example 210, 1,1,1,3,3,3-hexafluoropropan-2-yl 5-(2-(tetrahydro-1H-furo[3,4-c]pyrrol-5(3H)-yl)-4-(trifluoromethyl)benzyl)hexahydropyrrolo[3,4-c]pyrrole-2(1H)-carboxylate] | 1000 to 10000 nM | < 100 nM | > 75% | 1000 to 10000 nM | < 25% | < 25%
CCn1ncc(CN2CC3CN(C(=O)OC(C(F)(F)F)C(F)(F)F)CC3C2)c1C(=O)NCC1CCOCC1 (stereo not drawn) [Example 181, 1,1,1,3,3,3-hexafluoropropan-2-yl 5-((1-ethyl-5-(((tetrahydro-2H-pyran-4-yl)methyl)carbamoyl)-1H-pyrazol-4-yl)methyl)hexahydropyrrolo[3,4-c]pyrrole-2(1H)-carboxylate] | 100 to 1000 nM | < 100 nM | > 75% | > 10000 nM | 25 to 75% | < 25%
O=C(OC(C(F)(F)F)C(F)(F)F)N1CC2CN(Cc3ccc(N4CCOCC4)cc3C(F)(F)F)CC2C1 (stereo not drawn) [Example 10, 1,1,1,3,3,3-Hexafluoropropan-2-yl 5-[[4-(morpholin-4-yl)-2-(trifluoromethyl)phenyl]methyl]-octahydropyrrolo[3,4-c]pyrrole-2-carboxylate] | 1000 to 10000 nM | < 100 nM | > 75% | 100 to 1000 nM | < 25% | 25 to 75%
Cc1cccc(CN2CC3CN(C(=O)OC(C(F)(F)F)C(F)(F)F)CC3C2)c1N1CCOCC1 (stereo not drawn) [Example 41, 1,1,1,3,3,3-Hexafluoropropan-2-yl 5-[[3-methyl-2-(morpholin-4-yl)phenyl]methyl]-octahydropyrrolo[3,4-c]pyrrole-2-carboxylate] | 1000 to 10000 nM | 100 to 1000 nM | > 75% | 1000 to 10000 nM | < 25% | < 25%
O=C(OC(C(F)(F)F)C(F)(F)F)N1CC2CN(Cc3ccc(N4CCOCC4)cc3OC(F)(F)F)CC2C1 (stereo not drawn) [Example 11, 1,1,1,3,3,3-Hexafluoropropan-2-yl 5-[[4-(morpholin-4-yl)-2-(trifluoromethoxy)phenyl]methyl]-octahydropyrrolo[3,4-c]pyrrole-2-carboxylate] | 100 to 1000 nM | < 100 nM | > 75% | 100 to 1000 nM | < 25% | > 75%
O=C(OC(C(F)(F)F)C(F)(F)F)N1CC2CN(Cc3ccc(Cl)cc3N3Cc4cccnc4C3)CC2C1 (stereo not drawn) [Example 32, 1,1,1,3,3,3-Hexafluoropropan-2-yl 5-[(4-chloro-2-[5H,6H,7H-pyrrolo[3,4-b]pyridin-6-yl]phenyl)methyl]-octahydropyrrolo[3,4-c]pyrrole-2-carboxylate] | 1000 to 10000 nM | < 100 nM | > 75% | 1000 to 10000 nM | 25 to 75% | 25 to 75%
Cc1c(CN2CC3CN(C(=O)ON4C(=O)CCC4=O)CC3C2)cccc1N1CCCCC1 (stereo not drawn) [Example 104, 2,5-Dioxopyrrolidin-1-yl 5-[[2-methyl-3-(piperidin-1-yl)phenyl]methyl]-octahydropyrrolo[3,4-c]pyrrole-2-carboxylate] | 1000 to 10000 nM | < 100 nM | > 75% | 100 to 1000 nM | < 25% | > 75%
Cc1c(CN2CC3CN(C(=O)OC(C(F)(F)F)C(F)(F)F)CC3C2)cccc1N1CCC(NS(C)(=O)=O)CC1 (stereo not drawn) [Example 149, 1,1,1,3,3,3-hexafluoropropan-2-yl 5-[[3-(4-methanesulfonamidopiperidin-1-yl)-2-methylphenyl]methyl]-octahydropyrrolo[3,4-c]pyrrole-2-carboxylate] | 1000 to 10000 nM | < 100 nM | > 75% | 1000 to 10000 nM | < 25% | 25 to 75%
O=C(OC(C(F)(F)F)C(F)(F)F)N1CC2CN(Cc3ccc(C(F)F)cc3N3CCOCC3)CC2C1 (stereo not drawn) [Example 203, 1,1,1,3,3,3-hexafluoropropan-2-yl 5-(4-(difluoromethyl)-2-morpholinobenzyl)hexahydropyrrolo[3,4-c]pyrrole-2(1H)-carboxylate] | 1000 to 10000 nM | < 100 nM | > 75% | 1000 to 10000 nM | 25 to 75% | < 25%
O=C(OC(C(F)(F)F)C(F)(F)F)N1CC2CN(Cc3c(N4CC5COCC5C4)cccc3C(F)(F)F)CC2C1 (stereo not drawn) [Example 209, 1,1,1,3,3,3-hexafluoropropan-2-yl 5-(2-(tetrahydro-1H-furo[3,4-c]pyrrol-5(3H)-yl)-6-(trifluoromethyl)benzyl)hexahydropyrrolo[3,4-c]pyrrole-2(1H)-carboxylate] | 1000 to 10000 nM | 100 to 1000 nM | > 75% | > 10000 nM | 25 to 75% | < 25%
O=C(OC(C(F)(F)F)C(F)(F)F)N1CC2CN(Cc3ccc(N4CCOCC4)cc3F)CC2C1 (stereo not drawn) [Example 1, 1,1,1,3,3,3-Hexafluoropropan-2-yl 5-(2-fluoro-4-morpholinobenzyl)hexahydropyrrolo[3,4-c]pyrrole-2(1H)-carboxylate] | 1000 to 10000 nM | < 100 nM | > 75% | 100 to 1000 nM | < 25% | 25 to 75%
O=C(OC(C(F)(F)F)C(F)(F)F)N1CC2CN(Cc3ccc(N4CCOCC4)cc3Cl)CC2C1 (stereo not drawn) [Example 2, 1,1,1,3,3,3-Hexafluoropropan-2-yl 5-(2-chloro-4-morpholinobenzyl)hexahydropyrrolo[3,4-c]pyrrole-2(1H)-carboxylate] | 1000 to 10000 nM | < 100 nM | > 75% | 100 to 1000 nM | < 25% | 25 to 75%
O=C(OC(C(F)(F)F)C(F)(F)F)N1CC2CN(Cc3cccc(N4CCC5(CCOC5)C4)c3Cl)CC2C1 (stereo not drawn) [Example 48, 1,1,1,3,3,3-Hexafluoropropan-2-yl 5-[(2-chloro-3-[2-oxa-7-azaspiro[4.4]nonan-7-yl]phenyl)methyl]-octahydropyrrolo[3,4-c]pyrrole-2-carboxylate] | 1000 to 10000 nM | < 100 nM | > 75% | 1000 to 10000 nM | < 25% | 25 to 75%
